Assay results as given in the kinase profiling compilation of Christmann-Franck et al. (2016).
pKd: −log10 of the molar value.

Columns and labels:
Assay in all cases: KINOMEscan competition binding
[1] = molecular target: ABL1 (human), P00519 [E255K]
[2] = molecular target: ABL1 (human), P00519 [H396P]
AURKB (human) = AURKB (human) (UniProt Q96GD4)
AXL (human) = AXL (human) (UniProt P30530)
BMP2K (human) = BMP2K (human) (UniProt Q9NSY1)
CAMK1G (human) = CAMK1G (human) (UniProt Q96NX5)
CAMKK1 (human) = CAMKK1 (human) (UniProt Q8N5S9)
CDK18 (human) = CDK18 (human) (UniProt Q07002)
Chain of CDK18 (human) (Q07002 whole entry, looked up): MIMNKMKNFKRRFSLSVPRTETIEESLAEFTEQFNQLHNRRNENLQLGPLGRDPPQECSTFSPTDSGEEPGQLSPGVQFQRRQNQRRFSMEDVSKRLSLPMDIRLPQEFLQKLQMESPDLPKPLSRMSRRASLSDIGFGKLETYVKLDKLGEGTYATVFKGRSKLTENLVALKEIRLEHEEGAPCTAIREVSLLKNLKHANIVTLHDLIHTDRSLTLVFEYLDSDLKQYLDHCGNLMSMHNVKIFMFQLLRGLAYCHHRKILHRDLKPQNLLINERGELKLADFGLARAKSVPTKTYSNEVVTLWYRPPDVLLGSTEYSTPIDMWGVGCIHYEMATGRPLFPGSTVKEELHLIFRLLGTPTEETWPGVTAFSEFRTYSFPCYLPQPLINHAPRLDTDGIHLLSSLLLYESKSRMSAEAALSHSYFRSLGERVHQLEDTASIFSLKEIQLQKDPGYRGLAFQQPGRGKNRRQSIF

CaMK1 (human) = CaMK1 (human) (UniProt Q14012)
Chain of CaMK1 (human) (Q14012 whole entry, looked up): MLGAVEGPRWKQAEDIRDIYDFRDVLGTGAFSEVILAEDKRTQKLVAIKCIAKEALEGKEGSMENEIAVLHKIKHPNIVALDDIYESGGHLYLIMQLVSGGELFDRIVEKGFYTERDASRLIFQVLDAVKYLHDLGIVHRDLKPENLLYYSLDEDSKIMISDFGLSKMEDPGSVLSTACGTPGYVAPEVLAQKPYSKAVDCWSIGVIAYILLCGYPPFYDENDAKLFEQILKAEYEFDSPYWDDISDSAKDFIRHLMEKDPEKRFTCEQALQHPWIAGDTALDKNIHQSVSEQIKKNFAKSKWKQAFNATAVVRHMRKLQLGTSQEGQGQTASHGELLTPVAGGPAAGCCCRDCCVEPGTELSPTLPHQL

EIF2AK2 (human) = EIF2AK2 (human) (UniProt P19525)
EPHA7 (human) = EPHA7 (human) (UniProt Q15375)
EPHB4 (human) = EPHB4 (human) (UniProt P54760)
ERBB2 (human) = ERBB2 (human) (UniProt P04626)
FLT3 (human) = FLT3 (human) (UniProt P36888)
[3] = molecular target: FLT3 (human), P36888 [K663Q]
IKBKB (human) = IKBKB (human) (UniProt O14920)
Chain of IKBKB (human) (O14920 whole entry, looked up): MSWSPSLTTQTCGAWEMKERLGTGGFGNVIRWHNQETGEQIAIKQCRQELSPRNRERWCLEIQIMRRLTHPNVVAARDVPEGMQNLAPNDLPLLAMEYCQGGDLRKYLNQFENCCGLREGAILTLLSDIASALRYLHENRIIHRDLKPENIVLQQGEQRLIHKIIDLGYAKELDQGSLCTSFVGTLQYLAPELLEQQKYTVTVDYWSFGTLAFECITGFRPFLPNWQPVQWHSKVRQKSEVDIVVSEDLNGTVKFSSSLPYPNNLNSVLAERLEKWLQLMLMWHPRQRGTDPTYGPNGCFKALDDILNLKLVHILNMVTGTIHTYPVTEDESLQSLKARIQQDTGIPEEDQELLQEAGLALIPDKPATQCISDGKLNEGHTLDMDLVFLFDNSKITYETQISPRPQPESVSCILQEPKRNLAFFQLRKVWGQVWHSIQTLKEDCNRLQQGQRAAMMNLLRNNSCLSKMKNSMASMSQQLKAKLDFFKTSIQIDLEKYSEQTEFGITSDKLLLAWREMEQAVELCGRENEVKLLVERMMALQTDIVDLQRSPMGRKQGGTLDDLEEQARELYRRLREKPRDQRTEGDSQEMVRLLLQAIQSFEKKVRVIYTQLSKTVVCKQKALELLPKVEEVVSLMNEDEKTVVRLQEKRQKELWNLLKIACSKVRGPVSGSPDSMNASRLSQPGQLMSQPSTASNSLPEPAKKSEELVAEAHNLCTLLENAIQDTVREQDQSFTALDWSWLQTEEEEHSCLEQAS

IRAK1 (human) = IRAK1 (human) (UniProt P51617)
LIMK1 (human) = LIMK1 (human) (UniProt P53667)
MAP2K4 (human) = MAP2K4 (human) (UniProt P45985)
MAPK12 (human) = MAPK12 (human) (UniProt P53778)
MAPK14 (human) = MAPK14 (human) (UniProt Q16539)
MAPK8 (human) = MAPK8 (human) (UniProt P45983)
[4] = molecular target: MET (human), P08581 [M1250T]
MKNK2 (human) = MKNK2 (human) (UniProt Q9HBH9)
Chain of MKNK2 (human) (Q9HBH9 whole entry, looked up): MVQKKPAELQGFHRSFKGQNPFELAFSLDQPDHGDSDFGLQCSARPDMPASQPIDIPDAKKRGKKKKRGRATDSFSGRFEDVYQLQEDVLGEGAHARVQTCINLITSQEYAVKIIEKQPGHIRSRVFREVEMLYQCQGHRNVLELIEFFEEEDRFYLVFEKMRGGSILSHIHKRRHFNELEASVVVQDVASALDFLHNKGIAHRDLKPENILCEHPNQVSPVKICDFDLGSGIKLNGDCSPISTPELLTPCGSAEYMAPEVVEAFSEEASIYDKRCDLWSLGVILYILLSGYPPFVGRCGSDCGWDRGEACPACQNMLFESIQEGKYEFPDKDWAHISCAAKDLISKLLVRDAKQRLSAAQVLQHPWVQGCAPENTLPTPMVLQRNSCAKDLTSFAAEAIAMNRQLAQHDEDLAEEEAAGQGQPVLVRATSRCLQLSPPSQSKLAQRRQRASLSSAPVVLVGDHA

MYLK (human) = MYLK (human) (UniProt Q15746)
MYLK4 (human) = MYLK4 (human) (UniProt Q86YV6)
NLK (human) = NLK (human) (UniProt Q9UBE8)
Chain of NLK (human) (Q9UBE8 whole entry, looked up): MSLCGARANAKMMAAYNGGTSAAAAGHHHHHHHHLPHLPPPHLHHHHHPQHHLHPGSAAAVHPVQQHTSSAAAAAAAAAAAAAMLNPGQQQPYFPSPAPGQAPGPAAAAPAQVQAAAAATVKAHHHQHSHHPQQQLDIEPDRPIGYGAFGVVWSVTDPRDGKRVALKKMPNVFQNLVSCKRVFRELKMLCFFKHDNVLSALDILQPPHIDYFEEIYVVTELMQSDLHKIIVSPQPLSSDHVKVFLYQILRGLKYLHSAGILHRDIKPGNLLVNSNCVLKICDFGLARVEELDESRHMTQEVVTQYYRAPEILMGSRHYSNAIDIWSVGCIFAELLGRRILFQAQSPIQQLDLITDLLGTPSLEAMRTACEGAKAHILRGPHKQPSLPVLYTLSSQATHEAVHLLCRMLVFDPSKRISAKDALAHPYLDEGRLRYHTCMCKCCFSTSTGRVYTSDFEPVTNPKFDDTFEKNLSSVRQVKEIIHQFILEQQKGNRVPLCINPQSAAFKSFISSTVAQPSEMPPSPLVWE

[5] = molecular target: PIK3CA (human), P42336 [Q546K]
Chain of PIK3CA (human), P42336 [Q546K] (P42336 whole entry Q546K, looked up): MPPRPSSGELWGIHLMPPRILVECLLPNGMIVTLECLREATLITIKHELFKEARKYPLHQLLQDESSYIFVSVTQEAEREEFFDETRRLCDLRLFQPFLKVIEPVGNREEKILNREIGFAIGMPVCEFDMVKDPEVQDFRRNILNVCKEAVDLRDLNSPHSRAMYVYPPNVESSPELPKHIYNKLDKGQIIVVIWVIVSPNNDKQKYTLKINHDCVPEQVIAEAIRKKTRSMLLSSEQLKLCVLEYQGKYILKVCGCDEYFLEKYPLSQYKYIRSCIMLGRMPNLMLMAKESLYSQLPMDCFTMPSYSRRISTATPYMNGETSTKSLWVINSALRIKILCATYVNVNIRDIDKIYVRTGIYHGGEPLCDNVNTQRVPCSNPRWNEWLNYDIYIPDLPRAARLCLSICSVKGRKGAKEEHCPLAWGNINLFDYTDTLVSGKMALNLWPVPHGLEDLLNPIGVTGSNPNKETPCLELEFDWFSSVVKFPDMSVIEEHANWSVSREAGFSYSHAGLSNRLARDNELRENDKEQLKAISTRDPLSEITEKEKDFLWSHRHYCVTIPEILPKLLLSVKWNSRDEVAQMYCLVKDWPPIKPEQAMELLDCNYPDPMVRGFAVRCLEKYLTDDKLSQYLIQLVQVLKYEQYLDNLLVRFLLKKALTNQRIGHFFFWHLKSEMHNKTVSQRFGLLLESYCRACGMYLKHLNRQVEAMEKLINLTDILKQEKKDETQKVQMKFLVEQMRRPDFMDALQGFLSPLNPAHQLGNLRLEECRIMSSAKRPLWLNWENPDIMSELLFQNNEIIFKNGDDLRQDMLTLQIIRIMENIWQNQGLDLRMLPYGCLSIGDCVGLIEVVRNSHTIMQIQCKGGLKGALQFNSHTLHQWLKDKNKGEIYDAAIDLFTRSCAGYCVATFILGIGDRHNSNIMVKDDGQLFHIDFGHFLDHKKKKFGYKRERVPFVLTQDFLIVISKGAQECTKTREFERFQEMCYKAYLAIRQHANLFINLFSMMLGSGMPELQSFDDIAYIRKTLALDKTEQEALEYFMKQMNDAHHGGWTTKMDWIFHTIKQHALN

PRKAA1 (human) = PRKAA1 (human) (UniProt Q13131)
PRKACB (human) = PRKACB (human) (UniProt P22694)
PRKCQ (human) = PRKCQ (human) (UniProt Q04759)
PRKD1 (human) = PRKD1 (human) (UniProt Q15139)
PTK2B (human) = PTK2B (human) (UniProt Q14289)
RIPK1 (human) = RIPK1 (human) (UniProt Q13546)
ROCK2 (human) = ROCK2 (human) (UniProt O75116)
Chain of ROCK2 (human) (O75116 whole entry, looked up): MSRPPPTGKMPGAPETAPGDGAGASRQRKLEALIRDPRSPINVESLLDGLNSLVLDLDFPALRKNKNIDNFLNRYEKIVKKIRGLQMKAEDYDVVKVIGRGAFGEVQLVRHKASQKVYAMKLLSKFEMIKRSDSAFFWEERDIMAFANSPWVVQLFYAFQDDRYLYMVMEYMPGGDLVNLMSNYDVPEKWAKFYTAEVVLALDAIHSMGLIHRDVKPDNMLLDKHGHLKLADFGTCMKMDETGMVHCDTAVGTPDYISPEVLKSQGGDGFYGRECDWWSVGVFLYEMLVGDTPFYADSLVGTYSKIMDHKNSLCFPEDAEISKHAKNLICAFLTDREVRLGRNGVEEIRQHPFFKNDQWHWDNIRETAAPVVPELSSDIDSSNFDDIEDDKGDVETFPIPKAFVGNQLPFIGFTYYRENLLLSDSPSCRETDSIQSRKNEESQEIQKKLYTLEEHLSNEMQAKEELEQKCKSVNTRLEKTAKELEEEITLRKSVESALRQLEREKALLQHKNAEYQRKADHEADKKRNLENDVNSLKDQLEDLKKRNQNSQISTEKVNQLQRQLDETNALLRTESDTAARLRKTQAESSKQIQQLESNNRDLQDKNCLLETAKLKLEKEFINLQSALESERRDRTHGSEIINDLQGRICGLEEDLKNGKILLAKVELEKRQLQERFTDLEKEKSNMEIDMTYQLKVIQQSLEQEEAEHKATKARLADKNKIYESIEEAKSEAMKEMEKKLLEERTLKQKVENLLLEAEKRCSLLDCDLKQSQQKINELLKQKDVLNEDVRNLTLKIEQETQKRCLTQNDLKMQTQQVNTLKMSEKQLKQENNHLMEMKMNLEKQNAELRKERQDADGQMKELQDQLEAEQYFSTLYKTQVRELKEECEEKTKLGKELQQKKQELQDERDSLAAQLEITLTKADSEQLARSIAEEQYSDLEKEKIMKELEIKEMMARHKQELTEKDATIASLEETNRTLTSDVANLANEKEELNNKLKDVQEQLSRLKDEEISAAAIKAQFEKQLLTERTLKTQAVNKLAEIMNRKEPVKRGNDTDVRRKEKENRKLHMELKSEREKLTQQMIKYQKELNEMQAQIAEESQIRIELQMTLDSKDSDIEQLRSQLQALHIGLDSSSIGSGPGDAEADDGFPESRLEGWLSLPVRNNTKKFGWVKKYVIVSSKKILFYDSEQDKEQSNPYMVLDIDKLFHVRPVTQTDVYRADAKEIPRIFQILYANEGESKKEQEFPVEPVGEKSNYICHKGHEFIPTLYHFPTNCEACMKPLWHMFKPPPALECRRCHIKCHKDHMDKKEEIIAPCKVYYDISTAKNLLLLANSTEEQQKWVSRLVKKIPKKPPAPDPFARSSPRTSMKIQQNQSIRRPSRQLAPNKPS

SRMS (human) = SRMS (human) (UniProt Q9H3Y6)
TESK1 (human) = TESK1 (human) (UniProt Q15569)
TNK1 (human) = TNK1 (human) (UniProt Q13470)
[6] = molecular target: TYK2 JH2 pseudokinase (human) (UniProt P29597)
YES1 (human) = YES1 (human) (UniProt P07947)

pKd [1]: 8.19
pKd [2]: 7.96
pKd (AURKB (human)): 4.60
pKd (AXL (human)): 5.57
pKd (BMP2K (human)): 4.48
pKd (CAMK1G (human)): 4.52
pKd (CAMKK1 (human)): 4.80
pKd (CDK18 (human)): 5.96
pKd (CaMK1 (human)): 5.06
pKd (EIF2AK2 (human)): 4.47
pKd (EPHA7 (human)): 7.15
pKd (EPHB4 (human)): 7.07
pKd (ERBB2 (human)): 6.62
pKd (FLT3 (human)): 8.38
pKd [3]: 8.38
pKd (IKBKB (human)): 6.02
pKd (IRAK1 (human)): 5.02
pKd (LIMK1 (human)): 4.57
pKd (MAP2K4 (human)): 4.74
pKd (MAPK12 (human)): 5.89
pKd (MAPK14 (human)): 7.42
pKd (MAPK8 (human)): 7.00
pKd [4]: 5.68
pKd (MKNK2 (human)): 7.15
pKd (MYLK (human)): 4.57
pKd (MYLK4 (human)): 4.92
pKd (NLK (human)): 6.57
pKd [5]: 4.55
pKd (PRKAA1 (human)): 5.06
pKd (PRKACB (human)): 4.70
pKd (PRKCQ (human)): 4.89
pKd (PRKD1 (human)): 5.14
pKd (PTK2B (human)): 5.18
pKd (RIPK1 (human)): 5.49
pKd (ROCK2 (human)): 4.43
pKd (SRMS (human)): 5.52
pKd (TESK1 (human)): 4.42
pKd (TNK1 (human)): 6.82
pKd [6]: 4.80
pKd (YES1 (human)): 6.80
Compound: COc1cc2ncnc(Oc3cccc(NC(=O)Nc4cc(C(C)(C)C(F)(F)F)on4)c3)c2cc1OC
